biological target: T1, Lp-PLA2 in human plasma (Homo sapiens, UniProt Q13093); assay: (3a) Lp-PLA2 human plasma Thio-PAF assay; assay type: biochemical; settings: (3a) Thio-PAF assay, pooled human plasma; Examples 1-265 and 413-430 were tested here; read-out: pIC50 in the Lp-PLA2 human plasma assay (converted)
T1 construct: from tissue; host or cells: pooled human plasma
T1 sequence (Q13093 22-441): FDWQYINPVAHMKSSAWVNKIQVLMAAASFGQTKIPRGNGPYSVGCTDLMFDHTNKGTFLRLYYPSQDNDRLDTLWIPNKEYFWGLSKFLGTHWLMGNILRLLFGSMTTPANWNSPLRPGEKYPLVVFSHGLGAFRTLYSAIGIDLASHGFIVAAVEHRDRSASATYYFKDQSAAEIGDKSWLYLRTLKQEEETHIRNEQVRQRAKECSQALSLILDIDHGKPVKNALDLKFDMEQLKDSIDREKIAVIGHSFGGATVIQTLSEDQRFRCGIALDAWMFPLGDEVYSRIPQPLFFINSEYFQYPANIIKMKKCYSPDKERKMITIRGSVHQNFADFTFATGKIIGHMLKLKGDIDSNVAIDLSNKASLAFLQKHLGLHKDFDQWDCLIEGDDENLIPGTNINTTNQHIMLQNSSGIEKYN
Text: (3) Lipoprotein-Associated Phospholipase A2 (Lp-PLA2) Human Plasma Assay
The human plasma assay utilizes a thioester analog of PAF (phosphatidylcholine), where hydrolysis yields to the formation of a phospholipid containing a free thiol group. The amount of thiol is quantitated continuously by reacting with CPM (7-diethylamino-3-(4′-maleimidylphenyl)-4-methylcoumarin), a maleimide which increases in fluoresence after Michael addition of thiols. This assay may detect the activity of Lp-PLA2 in human plasma, as determined by specific inhibition by Lp-PLA2 inhibitors.
The thio-PAF assay was run as a quenched 15 μL assay. Compounds source plate was prepared by making 1:3 (by volume) serial dilution of the compounds into pure DMSO on 384-well microplate. 0.01 μL of compounds on compound source plate were transferred to 384 well Greiner 784076 (black) low-volume plates by ECHO liquid dispenser. 8 μL pooled human plasma, which was previously aliquoted and frozen, was added. Plates were centrifuged for 10 sec at 500 rpm. After 30 minutes preincubation, 2 μL of substrate solution comprising 2.5 mM 2-thio-PAF [from ethanol stock], 32 μM CPM [from a DMSO stock] and 3.2 mM NEM (N-ethylmaleimide) [made fresh daily in DMSO] in assay buffer of 50 mM HEPES, pH 7.4, 150 mM NaCl, 1 mM CHAPS was added to 384 well Greiner 784076 (black) low-volume plates by BRAVO liquid handling station. After 2 mins, reaction was quenched with 5 μL of 5% aqueous trifluoroacetic acid (TFA). Plates were covered to protect from light and incubated for 40 min at room temperature. Plates were read at ex: 380/em: 485 using Envision microplate reader. PIC50 data, curve and QC analysis were conducted by using XLFit module in Excel.

IC50	SMILES
≤ 0.1 µM	O=c1nc(OCc2cccc(F)c2F)cc2n1C[C@@H]1COCCN21 [Example E221, (R)-7-((2,3-difluorobenzyl)oxy)-3,4,11,11a-tetrahydropyrimido[6′,1′:2,3]imidazo[5,1-c][1,4]oxazin-9(1H)-one]
≤ 10 µM	CCCCN1CC(Oc2c(F)cc(COc3cc4n(c(=O)n3)C[C@@H]3CCCN43)cc2F)C1 [Example E207, (S)-3-((4-((1-butylazetidin-3-yl)oxy)-3,5-difluorobenzyl)oxy)-7,8,8a,9-tetrahydropyrrolo[1′,2′:3,4]imidazo[1,2-c]pyrimidin-1(6H)-one]
≤ 10 µM	O=c1nc(OCc2cccc(F)c2)cc2n1C[C@@H]1CCCN21 [Example E214, (S)-3-((3-fluorobenzyl)oxy)-7,8,8a,9-tetrahydropyrrolo[1,2′:3,4]imidazo[1,2-c]pyrimidin-1(6H)-one]
≤ 10 µM	O=c1nc(NCc2ccc(F)cc2F)cc2n1C[C@H]1CCCN21 [Example E216, (R)-3-((2,4-difluorobenzyl)amino)-7,8,8a,9-tetrahydropyrrolo[1,2′:3,4]imidazo[1,2-c] pyrimidin-1(6H)-one]
≤ 10 µM	O=c1nc(OCc2cccc(F)c2F)cc2n1C[C@@H]1CCOCN21 [Example E183, (S)-3-((2,3-difluorobenzyl)oxy)-8,9,9a,10-tetrahydropyrimido[6′,1′:2,3]imidazo[1,5-c][1,3] oxazin-1(6H)-one]
≤ 10 µM	O=c1nc(OCc2cccc(F)c2F)cc2n1C[C@@H]1CCCN21 [Example E212, (S)-3-((2,3-difluorobenzyl)oxy)-7,8,8a,9-tetrahydropyrrolo[1′,2′:3,4]imidazo[1,2-c]pyrimidin-1(6H)-one]
≤ 10 µM	O=c1nc(OCc2cc(F)c(F)cc2F)cc2n1C[C@H]1COCN21 [Example E173, (S)-6-((2,4,5-trifluorobenzyl)oxy)-10,10a-dihydro-1H-oxazolo[3′,4′:3,4]imidazo[1,2-c] pyrimidin-8(3H)-one]
≤ 10 µM	O=c1nc(OCc2cc(F)c(F)cc2F)cc2n1C[C@H]1CCCN21 [Example E218, (R)-3-((2,4,5-trifluorobenzyl)oxy)-7,8,8a,9-tetrahydropyrrolo[1′,2′:3,4]imidazo[1,2-c]pyrimidin-1(6H)-one]
≤ 10 µM	O=c1nc(OCc2cccc(F)c2F)cc2n1CC1OCCN21 (stereo not drawn) [Example E187, 6-((2,3-Difluorobenzyl)oxy)-10,10a-dihydro-2H-oxazolo[3′,2′:3,4]imidazo[1,2-c]pyrimidin-8(3H)-one]
≤ 10 µM	O=c1nc(OCc2cc(F)c(OC3CCC(F)(F)CC3)c(F)c2)cc2n1C[C@@H]1CCCN21 [Example E206, (S)-3-((4-((4,4-difluorocyclohexyl)oxy)-3,5-difluorobenzyl)oxy)-7,8,8a,9-tetrahydropyrrolo[1′,2′:3,4]imidazo[1,2-c]pyrimidin-1(6H)-one]
≤ 10 µM	Cn1cc(Oc2c(F)cc(COc3cc4n(c(=O)n3)CC3OCCN43)cc2F)cn1 (single isomer, unassigned) [Example E189, 6-((3,5-difluoro-4-((1-methyl-1H-pyrazol-4-yl)oxy)benzyl)oxy)-10,10a-dihydro-2H-oxazolo[3′,2′:3,4]imidazo[1,2-c]pyrimidin-8(3H)-one]
≤ 10 µM	O=c1nc(OCc2cc(F)c(OC3(CCF)CC3)c(F)c2)cc2n1C[C@H]1COCCN21 [Example E262, (S)-7-((3,5-difluoro-4-(1-(2-fluoroethyl)cyclopropoxy)benzyl)oxy)-3,4,11,11a-tetrahydropyrimido[6′,1′:2,3]imidazo[5,1-c][1,4]oxazin-9(1H)-one]
≤ 10 µM	Cn1cc(Oc2c(F)cc(COc3cc4n(c(=O)n3)CC3OCCCN43)cc2F)cn1 (stereo not drawn) [Example E200, 7-((3,5-Difluoro-4-((1-methyl-1H-pyrazol-4-yl)oxy)benzyl)oxy)-3,4,11,11a tetrahydropyrimido[6′,1′:2,3]imidazo[5,1-b][1,3]oxazin-9(2H)-one]

The remaining lines, values behind:

SMILES	IC50
O=c1nc(OCCc2cccc(F)c2)cc2n1C[C@H]1COCN21 [Example E186, (S)-6-(3-fluorophenethoxy)-10,10a-dihydro-1H-oxazolo[3′,4′:3,4]imidazo[1,2-c]pyrimidin-8(3H)-one]	≤ 10 µM
O=c1nc(OCc2cc(F)c(F)cc2F)cc2n1C[C@H]1CCCCN21 [Example E225, (R)-3-((2,4,5-trifluorobenzyl)oxy)-6,7,8,9,9a,10-hexahydro-1H-pyrido[1′,2′:3,4]imidazo[1,2-c]pyrimidin-1-one]	≤ 10 µM
O=c1nc(OCc2cc(F)c(OC3(CCF)CC3)c(F)c2)cc2n1C[C@@H]1COCCN21 [Example E258, (R)-7-((3,5-difluoro-4-(1-(2-fluoroethyl)cyclopropoxy)benzyl)oxy)-3,4,11,11a-tetrahydropyrimido[6′,1′:2,3]imidazo[5,1-c][1,4]oxazin-9(1H)-one]	≤ 10 µM
O=c1nc(OCc2ccc(F)cc2F)cc2n1C[C@@H]1CCOCN21 [Example E180, (S)-3-((2,4-difluorobenzyl)oxy)-8,9,9a,10-tetrahydropyrimido[6′,1′:2,3]imidazo[1,5-c][1,3]oxazin-1(6H)-one]	≤ 10 µM
O=c1nc(OCc2cc(F)c(OC3(CCF)CC3)c(F)c2)cc2n1C[C@@H]1COCN21 [Example E193, (R)-6-((3,5-difluoro-4-(1-(2-fluoroethyl)cyclopropoxy)benzyl)oxy)-10,10a-dihydro-1H-oxazolo[3′,4′:3,4]imidazo[1,2-c]pyrimidin-8(3H)-one]	≤ 10 µM
O=c1nc(OCc2cc(F)c(F)cc2F)cc2n1C[C@@H]1COCCN21 [Example E219, (R)-7-((2,4,5-trifluorobenzyl)oxy)-3,4,11,11a-tetrahydropyrimido[6′,1′:2,3]imidazo[5,1-c] [1,4]oxazin-9(1H)-one]	≤ 10 µM
O=c1nc(OCc2cc(F)cc(F)c2)cc2n1CC1OCCN21 (stereo not drawn) [Example E184, 6-((3,5-Difluorobenzyl)oxy)-10,10a-dihydro-2H-oxazolo[3′,2′:3,4]imidazo[1,2-c]pyrimidin-8 (3H)-one]	≤ 10 µM
O=c1nc(CCc2cccc(F)c2)cc2n1C[C@H]1COCCN21 [Example E257, (S)-7-(3-fluorophenethyl)-3,4,11,11a-tetrahydropyrimido[6′,1′:2,3]imidazo[5,1-c][1,4] oxazin-9(1H)-one]	≤ 10 µM
O=c1nc(OCc2ccc(F)cc2F)cc2n1C[C@@H]1COCN21 [Example E174, (R)-6-((2,4-difluorobenzyl)oxy)-10,10a-dihydro-1H-oxazolo[3′,4′:3,4]imidazo[1,2-c]pyrimidin-8(3H)-one]	≤ 10 µM
O=c1nc(OCc2cc(F)c(OC3(CCF)CC3)c(F)c2)cc2n1C[C@H]1CCOCN21 [Example E195, (R)-3-((3,5-difluoro-4-(1-(2-fluoroethyl)cyclopropoxy)benzyl)oxy)-8,9,9a,10-tetrahydropyrimido[6′,1′:2,3]imidazo[1,5-c][1,3]oxazin-1(6H)-one]	≤ 10 µM
O=c1nc(OCc2cccc(F)c2F)cc2n1C[C@@H]1COCN21 [Example E172, (R)-6-((2,3-difluorobenzyl)oxy)-10,10a-dihydro-1H-oxazolo[3′,4′:3,4]imidazo[1,2-c] pyrimidin-8(3H)-one]	≤ 10 µM

— patent US11999746B2, “Compounds” (GlaxoSmithKline Intellectual Property Development Limited, priority 2014, dated 2024)
